Data set [1] concerns the target T1, SCD-1 (Homo sapiens, UniProt O00767).
T1 construct: addition of 125 μg of microsomal fraction of HepG2 cells; host or cells: HepG2 human hepatocarcinoma cells (microsomal fraction)
T1 sequence (O00767 1-359): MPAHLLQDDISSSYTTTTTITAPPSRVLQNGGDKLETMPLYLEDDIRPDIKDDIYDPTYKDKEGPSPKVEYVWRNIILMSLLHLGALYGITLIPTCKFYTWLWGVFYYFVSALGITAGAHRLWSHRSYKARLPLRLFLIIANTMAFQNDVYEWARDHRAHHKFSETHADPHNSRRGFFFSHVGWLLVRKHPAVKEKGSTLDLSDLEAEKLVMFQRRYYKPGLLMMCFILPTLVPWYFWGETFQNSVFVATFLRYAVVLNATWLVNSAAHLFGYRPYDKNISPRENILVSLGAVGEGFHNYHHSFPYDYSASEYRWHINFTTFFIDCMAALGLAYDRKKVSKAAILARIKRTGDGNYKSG
Nature of the data set: Human enzymatic activity of SCD-1 from microsomes of HepG2 cells (conversion of [14C] stearic acid to oleic acid, HPLC). Format: biochemical. The conditions noted are these: microsomal fraction of HepG2 cells, 62 μM stearic acid, 20 minutes at 37° C., vs vehicle 0.1% DMSO; read-out: HSCD-1 (HEPG2) IC50. As for the experimental part:
In vitro: Human enzymatic activity of SCD-1 from microsomes of HepG2 cells after treatment with the inhibitor compounds (% inhibition).
HepG2 cells of human hepatocarcinoma (ATCC, HB-8065) are cultured at confluence then trypsinated. The cell residue is solubilized in 10 mM Tris buffer (pH 7.4) sucrose (250 mM) DTT (1 mM) then the cells are lysed by sonication. The microsomes are obtained after centrifuging at 10,000 g for 20 minutes at 4° C. followed by centifrugation of the supernatant at 100,000 g for 60 minutes at 4° C. The residue is solubilized in 10 mM Tris buffer (pH 7.4) sucrose (250 mM) at 4° C. and the microsomal proteins are assayed and stored at −196° C. (liquid nitrogen).
The enzymatic reaction measures the conversion of stearic acid (C18:0 fatty acid) into oleic acid (C18:1 fatty acid) by SCD-1. The enzymatic reaction is initiated by the addition of 125 μg of microsomal fraction of HepG2 cells to tubes (total reaction volume of 500 μl) containing 62 μM stearic acid (45 μM stearic acid and 17 μM [^14C] stearic acid) in 100 mM phosphate buffer (pH 7.16) with 7.2 mM ATP, 0.54 mM CoA, 6 mM MgCl2, 0.8 mM NADH and the inhibitor compound or vehicle (0.1% DMSO). The tubes are incubated for 20 minutes at 37° C. then the enzymatic reaction is halted by the addition of KOH (12%) and saponification for 30 minutes at 80° C. After acidification (3N HCl), the fatty acids are extracted twice with ethyl ether, evaporated under nitrogen before being solubilized in methanol/dichloromethane (3:1). The reaction product (C18:1) is separated from the reaction substrate (C18:0) by HPLC (Perkin Elmer, C18 reverse phase column) coupled with an in-line radioactivity detector (FlowOne). Enzymatic activity is measured in picomoles of stearic acid converted to oleic acid per minute and per mg of protein. For each inhibitor compound, an IC50 value is determined, compared with the reference enzymatic activity (vehicle 0.1% DMSO). Sterculic acid is the reference inhibitor compound (Gomez F. E., Bauman D. E., Ntambi J. M., Fox B. G. Effects of sterculic acid on stearoyl-CoA desaturase in differentiating […] adipocytes. Biochem Biophys Res Commun. 300 316-326 (2003).

The IC50 is the concentration that gives 50% inhibition. A word on the melting point: it is the temperature, or range, at which the solid turns liquid. `Cc1ccccc1OC1CCN(C(=O)Nc2ccnn(C)c2=O)CC1` [Example 59, 4-(2-methyl-phenoxy)-piperidine-1-carboxylic acid (2-methyl-3-oxo-2,3-dihydro-pyridazin-4-yl)-amide] gave a melting point of 124 °C. Further, the IC50 in data set [1] is approximately 1000 nM.

`Cn1nccc(NCC(=O)N2CCC(Oc3ccccc3C(F)(F)F)CC2)c1=O` [Example 1, 2-Methyl-4-{2-oxo-2-[4-(2-trifluoromethyl-phenoxy)-piperidin-1-yl]-ethylamino}-2H-pyridazin-3-one] came in with a melting point of 50 °C. In addition, in data set [1], the IC50 lay within 100 to 1000 nM.

As for `Cn1nccc(NCC(=O)N2CCC(Oc3cc(F)ccc3C(F)(F)F)CC2)c1=O` [Example 2, 4-{2-[4-(5-Fluoro-2-trifluoromethyl-phenoxy)-piperidin-1-yl]-2-oxo-ethylamino}-2-methyl-2H-pyridazin-3-one], the melting point turned out to be 140 °C. In addition, in data set [1], the IC50 was in the range of 30 to 100 nM.

Turning to `Cn1nccc(NCC(=O)N2CCC(Oc3ccc(Cl)cc3Cl)CC2)c1=O` [Example 11, 4-{2-[4-(2,4-Dichloro-phenoxy)-piperidin-1-yl]-2-oxo-ethylamino}-2-methyl-2H-pyridazin-3-one], the melting point is 152 °C. In data set [1], the IC50 fell in the range of 100 to 300 nM.

`Cn1nccc(NC(=O)N2CCC(Oc3cc(F)c(F)cc3Br)CC2)c1=O` [Example 71, 4-(2-bromo-4,5-difluoro-phenoxy)-piperidine-1-carboxylic acid (2-methyl-3-oxo-2,3-dihydro-pyridazin-4-yl)-amide] registered a melting point of 143 °C. For the same compound, in data set [1], the IC50 lay in the range of 10 to 100 nM.

The compound `O=C(CNc1ccn[nH]c1=O)N1CCC(Oc2cc(C(F)(F)F)ccc2Cl)CC1` [Example 40, 4-{2-[4-(2-Chloro-5-trifluoromethyl-phenoxy)-piperidin-1-yl]-2-oxo-ethylamino}-2H-pyridazin-3-one] showed a melting point of 222 °C. In addition, in data set [1], the IC50 fell in the range of 10 to 100 nM.

Compound `COc1cnn(C)c(=O)c1NCC(=O)N1CCC(Oc2cc(C(F)(F)F)ccc2Cl)CC1` [Example 51, 4-{2-[4-(2-Chloro-5-trifluoromethyl-phenoxy)-piperidin-1-yl]-2-oxo-ethylamino}-5-methoxy-2-methyl-2H-pyridazin-3-one] returned a melting point of 60 °C. The IC50 in data set [1] lay in the range of 100 to 1000 nM.

With `Cn1nccc(NCC(=O)N2CCC(Oc3cc(F)c(F)cc3Br)CC2)c1=O` [Example 5, 4-{2-[4-(2-Bromo-4,5-difluoro-phenoxy)-piperidin-1-yl]-2-oxo-ethylamino}-2-methyl-2H-pyridazin-3-one], the melting point amounted to 137 °C. In addition, the IC50 in data set [1] is 30 to 100 nM.

Compound `Cn1nccc(NCC(=O)N2CCC(Oc3cc(F)ccc3Cl)CC2)c1=O` [Example 8, 4-{2-[4-(2-Chloro-5-fluoro-phenoxy)-piperidin-1-yl]-2-oxo-ethylamino}-2-methyl-2H-pyridazin-3-one] registered a melting point of 159 °C. Also, the IC50 in data set [1] was 100 nM.

`Cn1nccc(NC(=O)N2CCC(Oc3cc(C(F)(F)F)ccc3F)CC2)c1=O` [Example 54, 4-(2-fluoro-5-trifluoromethyl-phenoxy)-piperidine-1-carboxylic acid (2-methyl-3-oxo-2,3-dihydro-pyridazin-4-yl)-amide] returned a melting point of 102 °C. Also, the IC50 in data set [1] was in the range of 30 to 100 nM.

On to `Cn1nccc(NC(=O)N2CCC(Oc3cc(Cl)c(Cl)cc3Cl)CC2)c1=O` [Example 70, 4-(2,4,5-trichloro-phenoxy)-piperidine-1-carboxylic acid (2-methyl-3-oxo-2,3-dihydro-pyridazin-4-yl)-amide], for which the melting point is 154 °C. Further, the IC50 in data set [1] lay in the range of 100 to 1000 nM.

For `Cc1ccc(C)c(OC2CCN(C(=O)Nc3ccnn(C)c3=O)CC2)c1` [Example 55, 4-(2,5-dimethyl-phenoxy)-piperidine-1-carboxylic acid (2-methyl-3-oxo-2,3-dihydro-pyridazin-4-yl)-amide], the melting point was determined as 108 °C. Moreover, the half-inhibitory concentration (IC50) in data set [1] is 100 to 1000 nM.

The compound `Cn1nccc(NC(=O)N2CCC(Oc3ccc(Cl)c(Cl)c3)CC2)c1=O` [Example 65, 4-(3,4-dichloro-phenoxy)-piperidine-1-carboxylic acid (2-methyl-3-oxo-2,3-dihydro-pyridazin-4-yl)-amide] displayed a melting point of 154 °C. Also, the IC50 in data set [1] worked out at 1000 nM.

Take `Cn1nccc(NCC(=O)N2CCC(Oc3ccccc3Cl)CC2)c1=O` [Example 7, 4-{2-[4-(2-Chloro-phenoxy)-piperidin-1-yl]-2-oxo-ethylamino}-2-methyl-2H-pyridazin-3-one]: the melting point is 142 °C. For the same compound, in data set [1], the IC50 is 100 to 1000 nM.

`Cn1nccc(NC(=O)N2CCC(Oc3cc(F)cc(C(F)(F)F)c3)CC2)c1=O` [Example 67, 4-(3-fluoro-5-trifluoromethyl-phenoxy)-piperidine-1-carboxylic acid (2-methyl-3-oxo-2,3-dihydro-pyridazin-4-yl)-amide]: the melting point turned out to be 115 °C. The IC50 in data set [1] is 300 nM.

On to `Cn1nccc(NCC(=O)N2CCC(CNc3cc(C(F)(F)F)ccc3Cl)CC2)c1=O` [Example 32, 4-(2-{4-[(2-Chloro-5-trifluoromethyl-phenylamino)-methyl]-piperidin-1-yl}-2-oxo-ethylamino)-2-methyl-2H-pyridazin-3-one], for which the melting point was determined as 64 °C. Also, the IC50 in data set [1] is 300 to 1000 nM.

On to `Cn1nccc(NCC(=O)N2CCC(COc3cc(C(F)(F)F)ccc3Cl)C2)c1=O` (stereo not shown) [Example 34, 4-{2-[3-(2-Chloro-5-trifluoromethyl-phenoxymethyl)-pyrrolidin-1-yl]-2-oxo-ethylamino}-2-methyl-2H-pyridazin-3-one], for which the melting point amounted to 183 °C. For the same compound, in data set [1], the IC50 was in the range of 30 to 100 nM.

For `Cn1nc(NC(=O)N2CCC(Oc3cc(C(F)(F)F)ccc3Cl)CC2)ccc1=O` [Example 74, 4-(2-Chloro-5-trifluoromethyl-phenoxy)-piperidine-1-carboxylic acid (1-methyl-6-oxo-1,6-dihydro-pyridazin-3-yl)-amide], the melting point amounted to 155 °C. Also, the IC50 in data set [1] is 10 to 100 nM.

As to `Cn1nccc(/C=C/C(=O)N2CCC(Oc3cc(C(F)(F)F)ccc3Cl)CC2)c1=O` [Example 36, 4-{(E)-3-[4-(2-Chloro-5-trifluoromethyl-phenoxy)-piperidin-1-yl]-3-oxo-propenyl}-2-methyl-2H-pyridazin-3-one], the melting point was determined as 154 °C. Also, in data set [1], the IC50 was in the range of 300 to 1000 nM.

Compound `Cn1ncc(OCC(=O)N2CCC(Oc3cc(Cl)ccc3Cl)CC2)cc1=O` [Example 25, 5-{2-[4-(2,5-Dichloro-phenoxy)-piperidin-1-yl]-2-oxo-ethoxy}-2-methyl-2H-pyridazin-3-one] registered a melting point of 163 °C. For the same compound, the concentration for half-maximal inhibition (IC50) in data set [1] is 1000 to 10000 nM.

The compound `Cn1nccc(NC(=O)N2CCC(Oc3cc(F)ccc3Cl)CC2)c1=O` [Example 53, 4-(2-Chloro-5-fluoro-phenoxy)-piperidine-1-carboxylic acid (2-methyl-3-oxo-2,3-dihydro-pyridazin-4-yl)-amide] had a melting point of 116 °C. For the same compound, the IC50 in data set [1] lay within 30 to 100 nM.

In turn, `Cn1nccc(NCC(=O)N2CCC(Oc3ccc(Cl)c(Cl)c3)CC2)c1=O` [Example 10, 4-{2-[4-(3,4-Dichloro-phenoxy)-piperidin-1-yl]-2-oxo-ethylamino}-2-methyl-2H-pyridazin-3-one] showed a melting point of 169 °C. Further, in data set [1], the IC50 lay within 300 to 1000 nM.

Compound `Cn1nccc(NCC(=O)N2CCC(Oc3cc(Cl)ccc3Cl)CC2)c1=O` [Example 12, 4-{2-[4-(2,5-Dichloro-phenoxy)-piperidin-1-yl]-2-oxo-ethylamino}-2-methyl-2H-pyridazin-3-one] showed a melting point of 162 °C. The IC50 in data set [1] lay in the range of 30 to 100 nM.

The values above are taken from US8946225B2, “Derivatives of 2H pyridazin-3-ones, their preparation and their use as SCD-1 inhibitors” (Pierre Fabre Medicament, priority 2009, dated 2015).
